According to PMC10608614, “Biochemical Insights into a Novel Family 2 Glycoside Hydrolase with Both β-1,3-Galactosidase and β-1,4-Galactosidase Activity from the Arctic” (Marine Drugs, 2023):
Values belong to the molecule of their own block, whether it stands above or below them.

Experiments:
rMaBGA [1] = biological target: T1, rMaBGA (Marinomonas sp. BSi20584, UniProt Z9SNG8Y577); experiment: steady-state kinetics, nonlinear Michaelis-Menten fit; galactose by coupled enzymatic assay; type: biochemical; conditions: pH and temperature not stated
T1 construct: predicted signal peptide (first 28 aa) removed; codon-optimised, pET-28a(+), E. coli BL21(DE3), Ni-NTA purified, tag not reported cut; about 100 kDa on SDS-PAGE
T1 sequence (Z9SNG8Y577 29-897): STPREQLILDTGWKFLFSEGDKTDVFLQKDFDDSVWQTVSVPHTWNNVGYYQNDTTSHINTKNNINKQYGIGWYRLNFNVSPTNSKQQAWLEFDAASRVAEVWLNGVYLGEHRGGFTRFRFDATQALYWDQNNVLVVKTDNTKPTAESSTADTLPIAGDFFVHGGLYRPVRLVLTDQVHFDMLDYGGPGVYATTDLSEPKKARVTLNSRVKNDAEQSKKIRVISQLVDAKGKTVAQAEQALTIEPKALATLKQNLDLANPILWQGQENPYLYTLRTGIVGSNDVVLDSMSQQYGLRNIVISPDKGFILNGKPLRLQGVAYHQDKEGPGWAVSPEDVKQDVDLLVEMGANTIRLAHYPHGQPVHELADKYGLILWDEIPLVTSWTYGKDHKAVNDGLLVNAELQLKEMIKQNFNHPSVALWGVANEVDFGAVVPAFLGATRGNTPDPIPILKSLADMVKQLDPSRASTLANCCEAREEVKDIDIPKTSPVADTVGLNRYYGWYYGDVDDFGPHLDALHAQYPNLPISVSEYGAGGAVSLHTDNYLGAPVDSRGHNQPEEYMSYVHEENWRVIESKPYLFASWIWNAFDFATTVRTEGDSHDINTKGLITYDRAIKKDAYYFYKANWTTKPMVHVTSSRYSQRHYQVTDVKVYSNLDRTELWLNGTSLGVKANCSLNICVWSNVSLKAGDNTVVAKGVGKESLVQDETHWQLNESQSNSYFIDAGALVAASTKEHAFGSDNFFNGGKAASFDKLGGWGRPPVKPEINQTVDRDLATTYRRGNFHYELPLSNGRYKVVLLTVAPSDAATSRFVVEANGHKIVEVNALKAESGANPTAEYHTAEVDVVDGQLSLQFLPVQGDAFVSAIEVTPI
Description: steady-state kinetics, nonlinear Michaelis-Menten fit; galactose by coupled enzymatic assay on rMaBGA

rMaBGA [2] = biological target: T1, rMaBGA; experiment: steady-state kinetics, nonlinear Michaelis-Menten fit; o-nitrophenol absorbance at […] nm; type: biochemical; conditions: 0.1–10 mM substrate; standard assay 10 mM PBS, 30 °C (not restated for kinetics)

Km (rMaBGA [1]; 1–40 mM substrate): 2110 ± 484 µM
Structure (SMILES): CC(=O)N[C@H]1C(O)O[C@H](CO)[C@@H](O)[C@@H]1O[C@@H]1O[C@H](CO)[C@H](O)[C@H](O)[C@H]1O (stereo partly drawn) [Galβ-(1,3)-GlcNAc]

Km (rMaBGA [1]; 1–50 mM substrate): 7020 ± 1180 µM
Structure (SMILES): CC(=O)N[C@H]1C(O)O[C@H](CO)[C@@H](O[C@@H]2O[C@H](CO)[C@H](O)[C@H](O)[C@H]2O)[C@@H]1O (stereo partly drawn) [Galβ-(1,4)-GlcNAc]

Km (rMaBGA [2]): 294 ± 44 µM
Structure (SMILES): O=[N+]([O-])c1ccccc1O[C@@H]1O[C@H](CO)[C@H](O)[C@H](O)[C@H]1O [ONPG]
